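Grown in 96-well plates, cells were treated for 48 hours with each compound at five concentrations. Insufficient inhibition: endpoint recorded as highest concentration tested. At the GI50, growth is halved. Definition used: TGI = concentration required for complete inhibition of growth.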
Tests used:
Test in all cases: inhibition of tumour cell growth, NCI panel, 48 h; in the data active = GI50 below about 0.43 µM; inactive = the rest
[1] = tested on: HOP-92 NSCLC
[2] = tested on: MDA-MB-435
[3] = tested on: SK-MEL-2 melanoma
[4] = tested on: CCRF-CEM leukemia
[5] = tested on: SF-268 CNS
[6] = tested on: SK-MEL-5 melanoma
[7] = tested on: TK-10 renal
[8] = tested on: SK-MEL-28 melanoma
[9] = tested on: HS 578T breast
[10] = tested on: SNB-19 CNS
[11] = tested on: HOP-62 NSCLC
[12] = tested on: HT29 colon
[13] = tested on: MCF7 breast
[14] = tested on: NCI-H460 lung
[15] = tested on: HL-60(TB) leukemia
[16] = tested on: DU-145 prostate
[17] = tested on: A549 NSCLC
[18] = tested on: IGROV1 ovarian
[19] = tested on: SN12C renal
[20] = tested on: UO-31 renal
[21] = tested on: RPMI-8226 leukemia
[22] = tested on: UACC-62 melanoma
[23] = tested on: SW-620 colon
[24] = tested on: RXF 393 renal
[25] = tested on: K-562 leukemia
[26] = tested on: PC-3 prostate
[27] = tested on: 786-0 renal
[28] = tested on: OVCAR-4 ovarian
[29] = tested on: HCT-116 colon
[30] = tested on: HCC-2998 colon
[31] = tested on: LOX IMVI melanoma
[32] = tested on: OVCAR-5 ovarian
[33] = tested on: ACHN renal
[34] = tested on: SF-295 CNS
[35] = tested on: SF-539 CNS
[36] = tested on: HCT-15 colon
[37] = tested on: MALME-3M melanoma
[38] = tested on: SR leukemia
[39] = tested on: NCI-H522 lung
[40] = tested on: T-47D breast
[41] = tested on: UACC-257 melanoma
[42] = tested on: CAKI-1 renal
[43] = tested on: NCI/ADR-RES ovarian
[44] = tested on: A498 renal
[45] = tested on: NCI-H23 lung
[46] = tested on: OVCAR-8 ovarian
[47] = tested on: MDA-MB-231 breast
[48] = tested on: MOLT-4 leukemia
[49] = tested on: SNB-75 CNS
[50] = tested on: KM12 colon
[51] = tested on: BT-549 breast
[52] = tested on: SK-OV-3 ovarian
[53] = tested on: U251 CNS
[54] = tested on: M14 melanoma
[55] = tested on: NCI-H226 lung
[56] = tested on: COLO 205 colon
[57] = tested on: EKVX NSCLC
[58] = tested on: OVCAR-3 ovarian

COc1c(C)c2c(c(O)c1C/C=C(\C)CCC(=O)OCCN1CCOCC1)C(=O)OC2
active: GI50 [2] 0.201 µM | GI50 [4] 0.187 µM | GI50 [6] 0.383 µM | GI50 [8] 0.236 µM | GI50 [10] 0.325 µM | GI50 [13] 0.196 µM | GI50 [14] 0.0823 µM | GI50 [16] 0.415 µM | GI50 [17] 0.289 µM | GI50 [18] 0.27 µM | GI50 [22] 0.354 µM | GI50 [23] 0.142 µM | GI50 [25] 0.151 µM | GI50 [27] 0.385 µM | GI50 [29] 0.131 µM | GI50 [30] 0.39 µM | GI50 [31] 0.125 µM | GI50 [34] 0.323 µM | GI50 [35] 0.375 µM | GI50 [36] 0.0928 µM | GI50 [38] 0.24 µM | GI50 [39] 0.3 µM | GI50 [42] 0.299 µM | GI50 [45] 0.245 µM | GI50 [48] 0.302 µM | GI50 [50] 0.317 µM | GI50 [51] 0.426 µM | GI50 [53] 0.11 µM | GI50 [54] 0.29 µM | GI50 [58] 0.348 µM
> 76.7 µM: TGI [28]
32.6 µM: TGI [38]
> 100 µM: TGI [1] | TGI [2] | TGI [3] | TGI [4] | TGI [5] | TGI [6] | TGI [7] | TGI [8] | TGI [9] | TGI [10] | TGI [11] | TGI [12] | TGI [13] | TGI [14] | TGI [15] | TGI [16] | TGI [17] | TGI [18] | TGI [19] | TGI [20] | TGI [21] | TGI [22] | TGI [23] | TGI [24] | TGI [25] | TGI [26] | TGI [27] | TGI [29] | TGI [30] | TGI [31] | TGI [32] | TGI [33] | TGI [34] | TGI [35] | TGI [36] | TGI [37] | TGI [39] | TGI [40] | TGI [41] | TGI [42] | TGI [43] | TGI [44] | TGI [45] | TGI [46] | TGI [47] | TGI [48] | TGI [50] | TGI [51] | TGI [52] | TGI [53] | TGI [54] | TGI [55] | TGI [56] | TGI [57] | TGI [58]
> 24.9 µM: TGI [49]
inactive: GI50 [1] 5.18 µM | GI50 [3] 33.6 µM | GI50 [5] 0.532 µM | GI50 [7] > 24.7 µM | GI50 [9] 7 µM | GI50 [11] 0.457 µM | GI50 [12] 0.552 µM | GI50 [15] 1.12 µM | GI50 [19] 0.448 µM | GI50 [20] 0.599 µM | GI50 [21] 0.891 µM | GI50 [24] 0.774 µM | GI50 [26] 0.562 µM | GI50 [28] 0.576 µM | GI50 [32] 2.09 µM | GI50 [33] 0.458 µM | GI50 [37] 2.5 µM | GI50 [40] 0.612 µM | GI50 [41] 0.573 µM | GI50 [43] 0.471 µM | GI50 [44] 0.52 µM | GI50 [46] 0.464 µM | GI50 [47] 3.48 µM | GI50 [49] 0.475 µM | GI50 [52] 0.462 µM | GI50 [55] 0.581 µM | GI50 [56] 0.692 µM

N=C1c2nc3n(c2C(=O)c2nc4n(c21)CCCC4)CCCC3
8.16 µM: TGI [44]
> 79.3 µM: TGI [38]
26.1 µM: TGI [39]
> 65 µM: TGI [3]
inactive: GI50 [1] 52.8 µM | GI50 [3] 23.4 µM | GI50 [4] 20.5 µM | GI50 [5] 11.9 µM | GI50 [6] 0.431 µM | GI50 [7] 52.6 µM | GI50 [8] 1.84 µM | GI50 [9] 2.18 µM | GI50 [10] 2.89 µM | GI50 [11] 0.921 µM | GI50 [12] 2.56 µM | GI50 [13] 1.36 µM | GI50 [14] 1.59 µM | GI50 [15] 31 µM | GI50 [16] 1.5 µM | GI50 [17] 1.98 µM | GI50 [18] 41.6 µM | GI50 [19] 1.58 µM | GI50 [20] 4.03 µM | GI50 [21] 27.5 µM | GI50 [22] 0.784 µM | GI50 [23] 3.8 µM | GI50 [24] 15.8 µM | GI50 [25] 19.8 µM | GI50 [26] > 68.8 µM | GI50 [27] 32.2 µM | GI50 [28] 24.7 µM | GI50 [29] 19.8 µM | GI50 [30] 3.74 µM | GI50 [32] 2.28 µM | GI50 [33] 20.5 µM | GI50 [34] 1.74 µM | GI50 [35] 2.42 µM | GI50 [36] 2.07 µM | GI50 [37] 1.7 µM | GI50 [38] 13.4 µM | GI50 [39] 4.17 µM | GI50 [40] 11.7 µM | GI50 [41] 1.67 µM | GI50 [42] 19.1 µM | GI50 [43] 35.6 µM | GI50 [44] 0.727 µM | GI50 [45] 1.37 µM | GI50 [46] 32.8 µM | GI50 [47] 33.6 µM | GI50 [48] 47.2 µM | GI50 [49] 1.83 µM | GI50 [50] 16.6 µM | GI50 [51] 2.22 µM | GI50 [52] 34.2 µM | GI50 [53] 5.75 µM | GI50 [54] 1.82 µM | GI50 [55] 1.08 µM | GI50 [56] 1.83 µM | GI50 [57] 44.7 µM | GI50 [58] 27.1 µM
2.04 µM: TGI [22]
3.54 µM: TGI [11] | TGI [14]
3.57 µM: TGI [49]
5.51 µM: TGI [12]
> 100 µM: TGI [1] | TGI [4] | TGI [7] | TGI [18] | TGI [21] | TGI [25] | TGI [26] | TGI [28] | TGI [29] | TGI [33] | TGI [40] | TGI [43] | TGI [46] | TGI [47] | TGI [48] | TGI [50] | TGI [52] | TGI [57] | TGI [58]
12.8 µM: TGI [30]
> 83.2 µM: TGI [42]
5.2 µM: TGI [35]
> 74.9 µM: TGI [5]
3.86 µM: TGI [45]
3.12 µM: TGI [19]
2.15 µM: TGI [31]
3.29 µM: TGI [54]
3.61 µM: TGI [13]
active: GI50 [2] 0.235 µM | GI50 [31] 0.406 µM
3.38 µM: TGI [55]
4.33 µM: TGI [17]
2.9 µM: TGI [16]
3.4 µM: TGI [34]
> 84.3 µM: TGI [15]
3.39 µM: TGI [56]
24.4 µM: TGI [23]
51 µM: TGI [24]
6.68 µM: TGI [9]
4.89 µM: TGI [32]
4.81 µM: TGI [41]
0.864 µM: TGI [6]
6.62 µM: TGI [36]
> 89.3 µM: TGI [27]
12.5 µM: TGI [10]
48.7 µM: TGI [53]
0.504 µM: TGI [2]
28.6 µM: TGI [20]
4.94 µM: TGI [51]
3.7 µM: TGI [8] | TGI [37]

— PubChem BioAssay (NCI)
